From ChEMBL document CHEMBL1201862, “PubChem BioAssay data set” (2004)
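Dose response: 5 concentrations. Exposure: 48 h. Format: 96-well plates. Endpoint: linear interpolation; highest concentration if not reached. The concentration for 50% growth inhibition is given as GI50.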 Active and inactive are the calls of the source. Cut-off read from the data, not from the text of the source: active = GI50 up to about 1.1 µM and inactive = higher.

Columns and labels:
Assay in all cases: NCI-60 cell line screen, 48 h
A498 = system: A498
SN12C = system: SN12C
SK-OV-3 = system: SK-OV-3
TK-10 = system: TK-10
OVCAR-8 = system: OVCAR-8
UACC-62 = system: UACC-62
RXF 393 = system: RXF 393
CCRF-CEM = system: CCRF-CEM
RPMI-8226 = system: RPMI-8226
UO-31 = system: UO-31
ACHN = system: ACHN
HT-29 = system: HT-29
MCF7 = system: MCF7
SF-295 = system: SF-295
Hs-578T = system: Hs-578T
NCI-H522 = system: NCI-H522
HCT-116 = system: HCT-116
SNB-19 = system: SNB-19
NCI-H23 = system: NCI-H23
MDA-MB-435 = system: MDA-MB-435

SMILES	GI50 (A498)	GI50 (SN12C)	GI50 (SK-OV-3)	GI50 (TK-10)	GI50 (OVCAR-8)	GI50 (UACC-62)	GI50 (RXF 393)	GI50 (CCRF-CEM)	GI50 (RPMI-8226)	GI50 (UO-31)	GI50 (ACHN)	GI50 (HT-29)	GI50 (MCF7)	GI50 (SF-295)	GI50 (Hs-578T)	GI50 (NCI-H522)	GI50 (HCT-116)	GI50 (SNB-19)	GI50 (NCI-H23)	GI50 (MDA-MB-435)
O=C1C=C(Nc2cccnc2)c2ccccc2C1=O	9.08 µM (inactive)	8.02 µM (inactive)	8.71 µM (inactive)	19.1 µM (inactive)	7.55 µM (inactive)	1.68 µM (inactive)	13.1 µM (inactive)	15.2 µM (inactive)	9.04 µM (inactive)	12 µM (inactive)	7.73 µM (inactive)	17 µM (inactive)	2.64 µM (inactive)	2.92 µM (inactive)	2.4 µM (inactive)	4.7 µM (inactive)	11.6 µM (inactive)	7.1 µM (inactive)	2.8 µM (inactive)	0.348 µM (active)
COc1cc2c(/C=C3/C(=O)Nc4ccccc43)c(Cl)n(Cc3ccc(Cl)cc3)c2cc1C	0.733 µM (active)	0.226 µM (active)	0.305 µM (active)	0.565 µM (active)	0.299 µM (active)	0.28 µM (active)	0.339 µM (active)	0.29 µM (active)	0.27 µM (active)	0.826 µM (active)	0.324 µM (active)	0.296 µM (active)	0.491 µM (active)	0.333 µM (active)	0.401 µM (active)	0.343 µM (active)	0.264 µM (active)	0.43 µM (active)	0.24 µM (active)	0.193 µM (active)
CC1(C)N=c2c(ncn2CCCO)=C(C(N)=O)N1	> 100 µM (inactive)	> 100 µM (inactive)	> 100 µM (inactive)	> 100 µM (inactive)	> 100 µM (inactive)	> 100 µM (inactive)	> 100 µM (inactive)	> 100 µM (inactive)	> 100 µM (inactive)		> 100 µM (inactive)	> 100 µM (inactive)	> 100 µM (inactive)	> 100 µM (inactive)	> 100 µM (inactive)	> 100 µM (inactive)	> 100 µM (inactive)	> 100 µM (inactive)	> 100 µM (inactive)	> 100 µM (inactive)
